Laboratory results reported in PubChem BioAssay (NCI).
Where “and” joins values, the source holds several entries; their conditions need not be identical. Equal entries are not always repeated.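 Interpolation was linear, between the two tested concentrations surrounding the appropriate level; five concentrations were tested over 48 hours in 96-well plates. GI50 marks 50% less growth. At the TGI there is no net growth.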

Assays:
Assay in all cases: NCI tumour cell line growth inhibition, 48 h
SK-OV-3 ovarian = tested on: SK-OV-3 ovarian
CCRF-CEM leukemia = tested on: CCRF-CEM leukemia
HOP-92 NSCLC = tested on: HOP-92 NSCLC
U251 CNS = tested on: U251 CNS
ACHN renal = tested on: ACHN renal
HCC-2998 colon = tested on: HCC-2998 colon
UO-31 renal = tested on: UO-31 renal
TK-10 renal = tested on: TK-10 renal
EKVX NSCLC = tested on: EKVX NSCLC
LOX IMVI melanoma = tested on: LOX IMVI melanoma

SMILES	GI50 (SK-OV-3 ovarian)	TGI (SK-OV-3 ovarian)	GI50 (CCRF-CEM leukemia)	TGI (CCRF-CEM leukemia)	GI50 (HOP-92 NSCLC)	TGI (HOP-92 NSCLC)	GI50 (U251 CNS)	TGI (U251 CNS)	GI50 (ACHN renal)	TGI (ACHN renal)	GI50 (HCC-2998 colon)	TGI (HCC-2998 colon)	GI50 (UO-31 renal)	TGI (UO-31 renal)	GI50 (TK-10 renal)	TGI (TK-10 renal)	GI50 (EKVX NSCLC)	TGI (EKVX NSCLC)	GI50 (LOX IMVI melanoma)	TGI (LOX IMVI melanoma)
CC1SC(c2c(Cl)cccc2Cl)N(NC(=O)C(O)c2ccccc2)C1=O (centres undefined)	> 100 µM	> 100 µM	74.6 µM	> 100 µM	57.8 µM	> 100 µM	54.1 µM	> 100 µM	92.2 µM	> 100 µM	> 100 µM	> 100 µM	> 100 µM	> 100 µM	> 100 µM	> 100 µM	> 100 µM	> 100 µM	60.7 µM	> 100 µM
CC(=O)c1cc2c(c3ccsc13)-c1ccccc1CC2	> 100 µM	> 100 µM	21.7 µM	62.1 µM	28.9 µM	> 100 µM	34.7 µM	> 100 µM	45.5 µM	> 100 µM	8.95 µM	27.3 µM	26.6 µM	85.2 µM	25.4 µM	83 µM	6.37 µM	> 100 µM	32.3 µM	> 100 µM
COc1cc2cc(Oc3ccc(NC(=O)Nc4ccc(Cl)c(C(F)(F)F)c4)cc3)c(C)nc2cc1OC	1.35 µM	5.79 µM	1.01 µM	3.09 µM	0.682 µM	2.05 µM	1.03 µM	3.78 µM	1.07 µM	4 µM	1.77 µM	5.48 µM	0.924 µM	2.38 µM	1.32 µM	6.19 µM	1.01 µM	3.75 µM	1.22 µM	4.16 µM
C#Cc1cccc(Oc2ccc(NC(=O)CCl)cc2)c1	> 82.5 µM	> 82.5 µM	5.82 µM	> 82.5 µM	> 82.5 µM	> 82.5 µM	> 82.5 µM	> 82.5 µM	> 82.5 µM	> 82.5 µM	> 82.5 µM	> 82.5 µM	> 82.5 µM	> 82.5 µM	> 82.5 µM	> 82.5 µM	> 82.5 µM	> 82.5 µM	18.1 µM	> 82.5 µM
N#C/C(N)=C(\C#N)N=Cc1csc2ccccc12	20.2 µM	46 µM	> 100 µM	> 100 µM	24.1 µM	> 100 µM	20.2 µM	45.3 µM	29.9 µM	> 100 µM	90.4 µM	> 100 µM	91.2 µM	> 100 µM	17.6 µM	45 µM	27 µM	> 100 µM	26.3 µM	66.3 µM
O=[N+]([O-])/C=C\c1c[nH]c2ccc(OCc3ccccc3)cc12	–	31.6 µM	–	> 100 µM	–	19.4 µM	–	19 µM	–	4.72 µM	–	3.66 µM	–	15.2 µM	–	23.1 µM	–	29.3 µM	–	3.5 µM
Cc1cc(C)cc(Nc2ccc([N+](=O)[O-])c(NCCN3CCOCC3)n2)c1	–	> 100 µM	0.00392 µM and 0.0331 µM	> 100 µM	–	24.3 µM	–	> 100 µM	0.0143 µM and 0.012 µM	> 100 µM	0.00435 µM and 0.0287 µM	> 100 µM	–	> 100 µM	13 µM	> 100 µM	–	> 100 µM	0.0159 µM and 0.0114 µM	> 100 µM
COC(=O)/C(=C/c1ccc(OC)cc1)NC(=O)c1ccccc1	–	> 100 µM	–	> 100 µM	–	> 100 µM	–	> 100 µM	–	> 100 µM	–	> 100 µM	–	> 100 µM	–	> 100 µM	–	> 100 µM	–	> 100 µM
NCCP(=O)(O)O	–	> 100 µM	–	> 100 µM	–	> 100 µM	–	> 100 µM	–	> 100 µM	–	> 100 µM	–	> 100 µM	–	> 100 µM	–	> 100 µM	–	> 100 µM
C/C1=C/C(=O)O[C@@H]2C[C@@H](CC[C@H](C)/C=C\C=C\CC1)O[C@@](OCCc1ccccc1)([C@@H]1CSC(=O)N1)C2	0.116 µM	> 5.4 µM	0.282 µM	> 17.5 µM	0.0119 µM	0.0661 µM	0.189 µM	> 17.5 µM	0.0501 µM	> 17.5 µM	6 µM	> 17.5 µM	0.0386 µM	0.173 µM	0.0895 µM	0.287 µM	0.106 µM	> 17.5 µM	0.0316 µM	–
O=C(CNc1ncco1)Nc1ccc(S(=O)(=O)c2ccc(NC(=O)CNc3ncco3)cc2)cc1	10.5 µM	24.1 µM	1.08 µM	5.91 µM	3.37 µM	13 µM	1.17 µM	2.48 µM	2.23 µM	6.23 µM	3.44 µM	16.4 µM	3.03 µM	17.3 µM	11.7 µM	25 µM	2.23 µM	9 µM	0.308 µM	1.92 µM
COc1ccc(-c2nnc(N3CCN(C(=O)CN4CCN(c5ccc(Cl)cc5)CC4)CC3)nc2-c2ccc(OC)cc2)cc1	36.6 µM	> 100 µM	48 µM	> 100 µM	16.2 µM	39.1 µM	15 µM	> 100 µM	22.9 µM	> 100 µM	56.8 µM	> 100 µM	6.92 µM	> 100 µM	58.5 µM	> 100 µM	> 100 µM	> 100 µM	15.6 µM	> 100 µM
CNC(=O)OC1C(O[C@H]2C[C@H]3[C@@H]4CC=C5C[C@@H](O)CC[C@]5(C)[C@H]4CC[C@]3(C)[C@H]2[C@H](C)C(=O)CCC(C)C)OCC(O)C1OC1OCC(O)C(O)C1OC(=O)c1ccc(OC)cc1 (some centres undefined)	0.0177 µM	1.31 µM	0.00566 µM	0.0373 µM	0.0209 µM	3.1 µM	0.00334 µM	3.87 µM	0.263 µM	5.13 µM	0.693 µM	5.25 µM	0.0766 µM	0.241 µM	0.793 µM	7.69 µM	0.0396 µM	3.47 µM	0.0106 µM	0.0688 µM
O=S(=O)(NCCNc1cc(-c2cn(-c3ccccc3)nc2-c2cccc(O)c2)ccn1)c1ccc(Cl)cc1	3.62 µM	19.6 µM	3.4 µM	28.6 µM	2.34 µM	8.35 µM	3.21 µM	11.4 µM	2.63 µM	10.3 µM	1.99 µM	4.14 µM	2.92 µM	12.1 µM	4.25 µM	23.1 µM	2.87 µM	31.2 µM	1.76 µM	3.56 µM
Cc1ccc(C2C3=C(N=c4s/c(=C/c5ccc(Br)cc5)c(=O)n42)c2ccc4ccccc4c2OCC3)cc1 (centres undefined)	> 100 µM	> 100 µM	> 100 µM	> 100 µM	> 100 µM	> 100 µM	> 100 µM	> 100 µM	> 100 µM	> 100 µM	> 100 µM	> 100 µM	> 100 µM	> 100 µM	> 100 µM	> 100 µM	> 100 µM	> 100 µM	> 100 µM	> 100 µM
COc1ccc(C(=O)COc2cccc(/C=C3\CSc4ccc(Cl)cc4C3=O)c2)cc1	25.9 µM	> 100 µM	1.82 µM	5.41 µM	1.28 µM	19.8 µM	2.13 µM	4.59 µM	11.9 µM	24.6 µM	15.5 µM	30 µM	11.5 µM	25.5 µM	19.7 µM	41.4 µM	15.3 µM	52 µM	1.79 µM	3.48 µM
COc1ccc(CC(NC(=O)[C@H](C)NC(=O)CN2CCOCC2)C(=O)N[C@@H](Cc2ccccc2)C(=O)[C@@]2(C)CO2)cc1 (some centres undefined)	0.392 µM	1.77 µM	0.0859 µM	> 100 µM	0.227 µM	0.758 µM	0.271 µM	1.07 µM	0.801 µM	> 33.5 µM	0.174 µM	0.324 µM	3.2 µM	15.2 µM	0.47 µM	4.93 µM	0.469 µM	> 100 µM	0.148 µM	0.379 µM
Cc1cc(C)n(C(=O)c2nn(-c3ccc(Cl)cc3)cc2O)n1	7.04 µM	66.1 µM	3.66 µM	54.5 µM	4.52 µM	> 100 µM	2.68 µM	> 100 µM	3.77 µM	> 100 µM	15.1 µM	> 100 µM	3.01 µM	19.2 µM	4.71 µM	> 100 µM	4.87 µM	> 100 µM	3.94 µM	> 100 µM
